Measurements taken from paper PMC7914897, “Cytotoxic Potential of a-Azepano- and 3-Amino-3,4-SeCo-Triterpenoids” (International Journal of Molecular Sciences, 2021).

What was measured:
[1] = system: MDA-MB-468 (Breast cancer); assay: cells; settings: Homo sapiens; for GI50: MDA-MB-468; for IC (TGI): MDA-MB-468, 48 h, read-out: TGI
SK-MEL-28 (Melanoma) = assay: NCI-60 screen (SRB, 48 h); settings: Homo sapiens; for GI50: SK-MEL-28; for IC (TGI): SK-MEL-28, 48 h, read-out: TGI
Colon Cancer subpanel = assay: NCI-60 screen, subpanel; settings: Homo sapiens; for IC (TGI): 48 h, read-out: TGI MG_MID; for GI50: read-out: GI50 MG_MID
[2] = system: NCI-H23 (NSC lung cancer); assay: NCI-60 screen (SRB, 48 h); settings: Homo sapiens; for GI50: NCI-H23; for IC (TGI): NCI-H23, 48 h, read-out: TGI
SK-MEL-5 (Melanoma) = assay: NCI-60 screen (SRB, 48 h); settings: Homo sapiens; for GI50: SK-MEL-5; for IC (TGI): SK-MEL-5, 48 h, read-out: TGI
TK-10 (Renal cancer) = assay: NCI-60 screen (SRB, 48 h); settings: Homo sapiens; for GI50: TK-10; for IC (TGI): TK-10, 48 h, read-out: TGI; for CC50: TK-10, read-out: LC50
HS 578T (Breast cancer) = assay: NCI-60 screen (SRB, 48 h); settings: Homo sapiens; for IC (TGI): 48 h, read-out: TGI; for CC50: read-out: LC50
U251 (CNS cancer) = assay: NCI-60 screen (SRB, 48 h); settings: for GI50: U-251; for IC (TGI): U-251, 48 h, read-out: TGI
SF-268 (CNS cancer) = assay: NCI-60 screen (SRB, 48 h); settings: Homo sapiens; for GI50: SF-268; for IC (TGI): SF-268, 48 h, read-out: TGI; for CC50: SF-268, read-out: LC50
Breast cancer subpanel = assay: NCI-60 screen, subpanel; settings: Homo sapiens; for IC (TGI): 48 h, read-out: TGI MG_MID; for GI50: read-out: GI50 MG_MID; for CC50: read-out: LC50 MG_MID
OVCAR-4 (Ovarian cancer) = assay: NCI-60 screen (SRB, 48 h); format: cell-based; settings: Homo sapiens; for IC (TGI): OVCAR-4, 48 h; for GI50: read-out: GI50
SF-539 (CNS cancer) = assay: NCI-60 screen (SRB, 48 h); settings: Homo sapiens; for GI50: SF-539; for IC (TGI): SF-539, 48 h, read-out: TGI; for CC50: SF-539, read-out: LC50
OVCAR-3 (Ovarian cancer) = assay: cells; settings: Homo sapiens; for GI50: OVCAR-3; for IC (TGI): OVCAR-3, 48 h, read-out: TGI
BT-549 (Breast cancer) = assay: NCI-60 screen (SRB, 48 h); format: cell-based; settings: Homo sapiens; for GI50: BT-549; for IC (TGI): BT-549, 48 h
MDA-MB-435 (Melanoma) = assay: NCI-60 screen (SRB, 48 h); format: cell-based; settings: Homo sapiens; for IC (TGI): MDA-MB-435, 48 h, read-out: TGI
[3] = system: NCI/ADR-RES (Ovarian cancer); assay: NCI-60 screen (SRB, 48 h); settings: Homo sapiens; for IC (TGI): 48 h, read-out: TGI
HOP-62 (NSC lung cancer) = assay: NCI-60 screen (SRB, 48 h); settings: Homo sapiens; for GI50: HOP-62; for IC (TGI): HOP-62, 48 h, read-out: TGI
HT29 (Colon cancer) = assay: NCI-60 screen (SRB, 48 h); settings: Homo sapiens; for GI50: HT-29; for IC (TGI): HT-29, 48 h, read-out: TGI
OVCAR-8 (Ovarian cancer) = assay: NCI-60 screen (SRB, 48 h); settings: Homo sapiens; for GI50: OVCAR-8
[4] = system: NCI-H460 (NSC lung cancer); assay: NCI-60 screen (SRB, 48 h); settings: Homo sapiens; for GI50: NCI-H460; for IC (TGI): NCI-H460, 48 h, read-out: TGI
DU-145 (Prostate cancer) = assay: NCI-60 screen (SRB, 48 h); settings: Homo sapiens; for GI50: DU-145; for IC (TGI): DU-145, 48 h, read-out: TGI; for CC50: DU-145, read-out: LC50
MOLT-4 (Leukemia) = assay: NCI-60 screen (SRB, 48 h); settings: Homo sapiens; for GI50: MOLT-4
Ovarian Cancer subpanel = assay: NCI-60 screen, subpanel; settings: Homo sapiens; for IC (TGI): 48 h, read-out: TGI MG_MID; for GI50: read-out: GI50 MG_MID; for CC50: read-out: LC50 MG_MID
LOX IMVI (Melanoma) = assay: NCI-60 screen (SRB, 48 h); format: cell-based; settings: Homo sapiens; for IC (TGI) / activity at 10 µM: 48 h; for activity at 10 µM: 1 dose 10 µM, read-out: Growth % of the Most Sensitive Cell Lines; for GI50: read-out: GI50
Leukemia subpanel = assay: cells; settings: Homo sapiens; for IC (TGI): 48 h, read-out: TGI MG_MID; for GI50: read-out: GI50 MG_MID; for CC50: read-out: LC50 MG_MID

Cc1ccc(S(=O)(=O)OC[C@]23CCC(C)(C)C[C@H]2C2=CC[C@@H]4[C@@]5(C)CCCNC(C)(C)[C@@H]5CC[C@@]4(C)[C@]2(C)CC3)cc1 [Compound 15]
GI50 [1]: 1.56 µM
IC (TGI) [1]: 3.13 µM
GI50 (SK-MEL-28 (Melanoma)): 1.84 µM
IC (TGI) (SK-MEL-28 (Melanoma)): 3.38 µM
IC (TGI) (Colon Cancer subpanel): 3.25 µM
GI50 (Colon Cancer subpanel): 1.7 µM
GI50 [2]: 1.7 µM
IC (TGI) [2]: 3.27 µM
GI50 (SK-MEL-5 (Melanoma)): 1.9 µM
IC (TGI) (SK-MEL-5 (Melanoma)): 3.68 µM
GI50 (TK-10 (Renal cancer)): 1.77 µM
IC (TGI) (TK-10 (Renal cancer)): 3.33 µM
CC50 (TK-10 (Renal cancer)): 6.27 µM
GI50 (HS 578T (Breast cancer)): 1.82 µM
IC (TGI) (HS 578T (Breast cancer)): 4.08 µM
CC50 (HS 578T (Breast cancer)): 9.14 µM
GI50 (U251 (CNS cancer); Homo sapiens): 1.74 µM
IC (TGI) (U251 (CNS cancer); Homo sapiens): 3.29 µM
GI50 (SF-268 (CNS cancer)): 2.32 µM
IC (TGI) (SF-268 (CNS cancer)): 8.44 µM
CC50 (SF-268 (CNS cancer)): 67.9 µM
IC (TGI) (Breast cancer subpanel): 3.63 µM
GI50 (Breast cancer subpanel): 1.75 µM
CC50 (Breast cancer subpanel): 9.14 µM
IC (TGI) (OVCAR-4 (Ovarian cancer)): 3.32 µM
GI50 (OVCAR-4 (Ovarian cancer); OVCAR-4): 1.69 µM
GI50 (SF-539 (CNS cancer)): 1.71 µM
IC (TGI) (SF-539 (CNS cancer)): 3.15 µM
CC50 (SF-539 (CNS cancer)): 5.79 µM
GI50 (OVCAR-3 (Ovarian cancer)): 1.84 µM
IC (TGI) (OVCAR-3 (Ovarian cancer)): 3.51 µM
GI50 (BT-549 (Breast cancer)): 1.9 µM
IC (TGI) (BT-549 (Breast cancer)): 3.78 µM
GI50 (MDA-MB-435 (Melanoma); MDA-MB-435): 1.61 µM
IC (TGI) (MDA-MB-435 (Melanoma)): 2.97 µM
GI50 [3]: 1.89 µM
IC (TGI) [3]: 3.93 µM
GI50 (HOP-62 (NSC lung cancer)): 1.81 µM
IC (TGI) (HOP-62 (NSC lung cancer)): 3.56 µM
GI50 (HT29 (Colon cancer)): 1.64 µM
IC (TGI) (HT29 (Colon cancer)): 3.23 µM
GI50 (OVCAR-8 (Ovarian cancer)): 1.99 µM
GI50 [4]: 1.77 µM
IC (TGI) [4]: 3.37 µM
GI50 (DU-145 (Prostate cancer)): 1.79 µM
IC (TGI) (DU-145 (Prostate cancer)): 3.37 µM
CC50 (DU-145 (Prostate cancer)): 6.35 µM
GI50 (MOLT-4 (Leukemia)): 1.55 µM
CC50 (MOLT-4 (Leukemia); MOLT-4, read-out: LC50): > 100 µM
IC (TGI) (Ovarian Cancer subpanel): 3.35 µM
GI50 (Ovarian Cancer subpanel): 1.74 µM
CC50 (Ovarian Cancer subpanel): 6.03 µM
IC (TGI) (LOX IMVI (Melanoma)): 3 µM
activity at 10 µM (LOX IMVI (Melanoma)): -87.7%
GI50 (LOX IMVI (Melanoma)): 1.6 µM
IC (TGI) (Leukemia subpanel): 4.24 µM
GI50 (Leukemia subpanel): 1.57 µM
CC50 (Leukemia subpanel): > 100 µM

Cc1ccc(S(=O)(=O)OC[C@@]2(C)CC[C@]3(C)CC[C@]4(C)C(=C3C2)C=C[C@@H]2[C@@]3(C)CCCNC(C)(C)[C@@H]3CC[C@]24C)cc1 [Compound 16]
GI50 [1]: 1.59 µM
IC (TGI) [1]: 3.22 µM
CC50 ([1]; MDA-MB-468, read-out: LC50): 6.51 µM
GI50 (SK-MEL-28 (Melanoma)): 1.77 µM
IC (TGI) (SK-MEL-28 (Melanoma)): 3.26 µM
CC50 (SK-MEL-28 (Melanoma); SK-MEL-28, read-out: LC50): 5.97 µM
IC (TGI) (Colon Cancer subpanel): 3.3 µM
GI50 (Colon Cancer subpanel): 1.64 µM
CC50 (Colon Cancer subpanel; read-out: LC50 MG_MID): 6.94 µM
GI50 [2]: 1.82 µM
IC (TGI) [2]: 3.42 µM
CC50 ([2]; NCI-H23, read-out: LC50): 6.41 µM
GI50 (SK-MEL-5 (Melanoma)): 1.82 µM
IC (TGI) (SK-MEL-5 (Melanoma)): 3.39 µM
GI50 (TK-10 (Renal cancer)): 1.88 µM
IC (TGI) (TK-10 (Renal cancer)): 3.59 µM
CC50 (TK-10 (Renal cancer)): 6.85 µM
GI50 (HS 578T (Breast cancer)): 1.94 µM
IC (TGI) (HS 578T (Breast cancer)): 4.26 µM
CC50 (HS 578T (Breast cancer)): 9.37 µM
GI50 (U251 (CNS cancer); Homo sapiens): 1.66 µM
IC (TGI) (U251 (CNS cancer); Homo sapiens): 3.17 µM
CC50 (U251 (CNS cancer); Homo sapiens, U-251, read-out: LC50): 6.07 µM
Growth % of the Most Sensitive Cell Lines (U251 (CNS cancer); U251, 1 dose 10 µM): −95.86%
GI50 (SF-268 (CNS cancer)): 1.95 µM
IC (TGI) (SF-268 (CNS cancer)): 4.12 µM
CC50 (SF-268 (CNS cancer)): 8.68 µM
IC (TGI) (Breast cancer subpanel): 3.5 µM
GI50 (Breast cancer subpanel): 1.67 µM
CC50 (Breast cancer subpanel): 7.57 µM
IC (TGI) (OVCAR-4 (Ovarian cancer)): 3.16 µM
GI50 (OVCAR-4 (Ovarian cancer); OVCAR-4): 1.66 µM
CC50 (OVCAR-4 (Ovarian cancer); OVCAR-4, read-out: LC50 (the source's name)): 6.02 µM
GI50 (SF-539 (CNS cancer)): 1.71 µM
IC (TGI) (SF-539 (CNS cancer)): 3.11 µM
CC50 (SF-539 (CNS cancer)): 5.66 µM
GI50 (OVCAR-3 (Ovarian cancer)): 1.88 µM
IC (TGI) (OVCAR-3 (Ovarian cancer)): 3.56 µM
GI50 (BT-549 (Breast cancer)): 1.48 µM
IC (TGI) (BT-549 (Breast cancer)): 3.14 µM
GI50 (MDA-MB-435 (Melanoma); MDA-MB-435): 1.64 µM
IC (TGI) (MDA-MB-435 (Melanoma)): 3.07 µM
CC50 (MDA-MB-435 (Melanoma); MDA-MB-435, read-out: LC50 (the source's name)): 5.75 µM
GI50 [3]: 2.05 µM
IC (TGI) [3]: 4.59 µM
CC50 ([3]; read-out: LC50): > 100 µM
GI50 (HOP-62 (NSC lung cancer)): 1.84 µM
IC (TGI) (HOP-62 (NSC lung cancer)): 3.59 µM
GI50 (HT29 (Colon cancer)): 1.48 µM
IC (TGI) (HT29 (Colon cancer)): 3.08 µM
GI50 (OVCAR-8 (Ovarian cancer)): 2.12 µM
IC (TGI) (OVCAR-8 (Ovarian cancer); OVCAR-8, 48 h, read-out: TGI): 4.57 µM
GI50 [4]: 1.85 µM
IC (TGI) [4]: 3.5 µM
GI50 (DU-145 (Prostate cancer)): 1.81 µM
IC (TGI) (DU-145 (Prostate cancer)): 3.4 µM
CC50 (DU-145 (Prostate cancer)): 6.39 µM
GI50 (MOLT-4 (Leukemia)): 1.84 µM
IC (TGI) (MOLT-4 (Leukemia); MOLT-4, 48 h, read-out: TGI): 4.16 µM
IC (TGI) (Ovarian Cancer subpanel): 3.68 µM
GI50 (Ovarian Cancer subpanel): 1.86 µM
CC50 (Ovarian Cancer subpanel): 29.4 µM
IC (TGI) (LOX IMVI (Melanoma)): 3.02 µM
activity at 10 µM (LOX IMVI (Melanoma)): -99.2%
GI50 (LOX IMVI (Melanoma)): 1.63 µM
IC (TGI) (Leukemia subpanel): 4.72 µM
GI50 (Leukemia subpanel): 1.61 µM
CC50 (Leukemia subpanel): > 100 µM
